Tests used:
[1] = system: murine BT GH2 β-galactosidase, GH33 sialidase, GH29 α-L-fucosidase; test: RNA sequencing of stool from allo-HSCT mice: BT PUL expression; type: in vivo, Bacteroides thetaiotaomicron; conditions: day 18, allo-HSCT mice with vs without meropenem
Protocol: Thus, in some cases, meropenem treatment during GVHD may lead to alterations in the behavior of BT. To evaluate this further, RNA sequencing of stool samples from allo-HSCT mice without and with meropenem treatment was performed. Also examined was the genome of mouse-derived BT isolate MDA-JAX BT001 (FIG. 23), and open reading frames (ORF) were identified, which were then assigned to polysaccharide utilization loci (PUL) using the Polysaccharide-Utilization Loci DataBase (PULDB) (41).
RNA sequencing and analysis. Approximately 30 mg of stool was freshly collected in 700 μL of ice cold QIAZOL® containing 200 μL of 0.1 mm diameter Zirconia Silica beads (11079101z, BioSpec). Samples were bead beaten twice for 2 min with a 30 second interval recovery. Samples were then centrifuged at 12,000 g for 1 min and the supernatant was collected for RNA isolation using the RNeasy mini kit (74104, QIAGEN®). […] RNA quantity and quality was determined using an Agilent 4200 TapeStation system (Agilent). […] The cDNA libraries were sequenced on the […]® MISEQ™ system to produce 1×300 bp single-end reads, resulting in ˜1 million reads per sample. […] The total reads of mouse stool samples were 950923±113406 (mean±standard deviation). […] Aligned mRNA expression changes were calculated using the Mann-Whitney U test in R software version 3.6.0 via RStudio version 1.2.1335. […]

[2] = human, in vivo
Protocol: In this study, data from 295 patients with acute myeloid leukemia (AML) or myelodysplastic syndrome (MDS) who underwent allo-HSCT with tacrolimus and methotrexate as GVHD prophylaxis following conditioning therapy with fludarabine and 5 busulfan from 2011 to 2016 were retrospectively examined. The incidence of acute intestinal GVHD until day 100 after transplant was evaluated and compared were patients who received neither cefepime nor meropenem, those who received cefepime alone, those who received meropenem alone, and those who received both cefepime and meropenem during the period from days −10 to 30 relative to allo-HSCT infusion.
Retrospective study design. 295 patients with acute myeloid leukemia (AML) or myelodysplastic syndrome (MDS) underwent allogeneic hematopoietic stem cell transplantation (allo-HSCT) with fludarabine plus busulfan as conditioning therapy and tacrolimus and methotrexate as GVHD prophylaxis from 2011 and 2016 and were analyzed retrospectively. Patients were classified by antibiotic exposures, including those who received neither cefepime nor meropenem, those who received cefepime alone, those who received meropenem alone and those who received both cefepime and meropenem from day −10 to day 30 after allo-HSCT. Acute GVHD was diagnosed by clinical and/or pathological findings, and graded according to standard criteria (56).

## C[C@@H](O)[C@H]1C(=O)N2C(C(=O)O)=C(S[C@@H]3CN[C@H](C(=O)N(C)C)C3)[C@H](C)[C@H]12 [meropenem]
[1]
  expression in murine BT of GH2 β-galactosidase, GH33 sialidase and GH29 α-L-fucosidase: upregulated expression
[2]
  Acute GVHD Grade 0, number of patients: 13
  Acute GVHD Grade 0, percentage of patients: (41%)
  Acute GVHD Grade I, number of patients: 5
  Acute GVHD Grade I, percentage of patients: (16%)
  Acute GVHD Grade II, number of patients: 10
  Acute GVHD Grade II, percentage of patients: (31%)
  incidence of acute intestinal GVHD: significantly higher
[2]; iv
  Acute GVHD Grade III-IV, number of patients: 4
  Acute GVHD Grade III-IV, percentage of patients: (13%)
